According to patent publication US7977320B2, “Method of increasing efficacy of tumor cell killing using combinations of anti-neoplastic agents” (The Regents of the University of California, priority 2004, dated 2011):

How the values were obtained:
Assay type in all cases: cell-based
[1] = test system: primary AML cells; assay: proliferation assay of primary AML samples after 5-azacytidine treatment; conditions: for inhibition of proliferation: Syk+ cells, FIG. 7A
Method: (§1) To evaluate the effect of certain chemotherapeutic agents on signal transduction through Syk and/or SHP-1, experiments were performed on primary AML samples. Primary leukemia cells were treated with 5-azacytidine for 4 days under otherwise normal cell culture growth conditions. The cells were then washed twice, and a proliferation assay was performed as described above. The basal level of proliferation (untreated cells) was considered as 100% and the percent change was calculated for each condition. Error bars indicate the SEM.

[2] = test system: SHP-1; assay: SHP-1 expression in primary AML samples after 5-azacytidine treatment; conditions: 2 of 5 SHP-1-negative primary AML samples
[3] = test system: Syk; assay: Syk expression in primary AML samples after 5-azacytidine treatment
Method: Based on these observations, we tested a panel of 25 primary AML samples for Syk expression using standard Western blotting and an anti-Syk or anti-ZAP-70 mouse monoclonal antibody from Santa Cruz Biochem.
as §1
Syk is not only an important protein kinase, but also a tumor suppressor. In many cancer cells, Syk is silenced by hypemethylation of the DNA encoding it. This hypermethylation can lead to absence of Syk expression and, as a result, to unresponsiveness of tumor cells to various treatments. To block possible hyper-methylation and restore Syk expression in Syk-negative primary AML samples, we used 5-azacytidine. Other hypomethylating agents could work as well. The results of the experiments are depicted in FIG. 7, Panels A-D.

[4] = test system: HL-60 cells; assay: proliferation assay of HL-60 cells transfected with Syk si-RNA or control RNA; conditions: Syk si-RNA-transfected HL-60 cells versus control RNA treated or untreated cells, FIG. 4B
Method: To test whether there is a correlation between response of AML cells to CD33 ligation and/or GO treatment and the level of their Syk expression, “blocking” experiments were performed. In order to block Syk expression, we used Syk-si-RNA transfection. More specifically, for the results presented in FIGS. 4A and 4B, HL-60 cells were transfected with Syk si-RNA or control RNA and grown in cell culture under normal conditions for these cells. 72 hours post-transfection, cells were cultured in the presence of optimal ([…]) concentration of mAb, as disclosed above (FIG. 4A) or the indicated concentrations of Mylotarg® (Wyeth) (FIG. 4B). Proliferation assays were performed as described above. The basal level of proliferation was >10000 CPM (considered as 100%). Each point represents the percent change for that condition. Error bars indicate the SEM. Bars compared and marked with asterisk have a statistically significant difference. For FIG. 4C, HL-60 cells were transfected with Syk si-RNA or control RNA. After 72 hours of culture under typical culture conditions, cell lysates were prepared and used to generate immune precipitates with the appropriate mAb.

[5] = test system: primary AML cells; assay: proliferative response of primary AML samples to GO; conditions: for responsive samples: FIG. 3A
Method: More specifically, for Panel A, colony formation assays were performed as follows: HL-60 cells were treated and cultured in 0.3% agarose in triplicate for each condition in the presence of 0.01 ug/ml of antibodies. After 14 days of culture, the number of colonies was enumerated in each dish. The basal level of colony formation (>400 per dish) was considered as 100% and the percentage of stimulation was calculated for each condition. Error bars in the figure indicate the SEM. Each graph is representative of at least 3 independent experiments. For Panel B, primary leukemia cells were cultured for 48 hours in the presence of 0.01 ug/ml of anti-CD33 mAb or control mouse IgG. Each bar in the figure summarizes (median) the proliferative response of that group. The basal level of untreated cell proliferation (CPM>5500 CPM) was considered as 0%. Inhibition was calculated as the percent change for that condition. Error bars indicate the SEM.
With the knowledge of the effect of a naked anti-CD33 antibody on Syk activation and cell proliferation or death, we investigated the effect of an immunotoxin (GO; Mylotarg® (Wyeth)) on these characteristics. GO was selected based on its approval status by the FDA. Proliferation assays were performed as described above. Various concentration of GO were added at the initiation of 48 hour culture. The basal levels of cell proliferation (untreated cells) were >10000 cpm and were considered as 100%. The percentage of change was calculated for each condition for each sample. Error bars indicate the SEM.

## Nc1ncn([C@@H]2O[C@H](CO)[C@@H](O)[C@H]2O)c(=O)n1 [5-azacytidine, 5-Azacytidine]
[1]; 5-aza alone, Syk-positive or SHP-positive samples versus negative samples
  level of inhibition of proliferation: significantly higher
[1]; 5-azacytidine 4 days combined with GO
  inhibition of proliferation: increased inhibition of proliferation
[1]; 5-azacytidine 4 days combined with naked anti-CD33 antibody
  inhibition of proliferation: increased inhibition of proliferation
[1]; Syk- cells (non-responders) treated with the hypomethylating agent, FIG. 7B
  effect of anti-CD33 antibodies on proliferation: substantially increased
[1]; Syk-negative or SHP-1-negative samples, 5-aza combined with Mylotarg
  level of inhibition of proliferation: comparable to positive samples
[1]; Syk-negative or SHP-1-negative samples, 5-aza combined with anti-CD33 mAb
  level of inhibition of proliferation: comparable to positive samples
[2]
  samples with restored SHP-1: 40%
[3]; 5 of 15 Syk-negative primary AML samples
  samples with restored Syk expression: 33%
[3]; Syk-positive samples (data not shown)
  level of Syk expression: un-changed

## gemtuzumab ozogamicin [GO]
[4]
  response of proliferation to treatment: significantly lower response
[5]; Syk-negative primary AML samples
  responsive samples: 17%
[5]; Syk-positive primary AML samples
  responsive samples: 83%
[5]; Syk-positive samples versus Syk-negative samples, p<0.003
  level of inhibition of proliferation: higher than in Syk-negative samples
[5]; both Syk-positive and Syk-negative samples, 48 hour culture, FIG. 3B
  proliferative response: dose-dependent inhibition
